Reference: ChEMBL document CHEMBL1151015, “Novel frameworks for trifluoromethyl ketone and phosphonate tsa inhibitors of type II PLA2” (Bioorg Med Chem Lett, 1997)

How the values were obtained:
[1] = molecular target: T1, Cytosolic phospholipase A2 (Homo sapiens) (UniProt P47712); assay: Compound was measured for the inhibitory activity against Cytosolic phospholipase A2 (c-PLA2) at 100 uM concentration; set-up: scale not given: the % may be the effect or the level left
T1 sequence (whole entry): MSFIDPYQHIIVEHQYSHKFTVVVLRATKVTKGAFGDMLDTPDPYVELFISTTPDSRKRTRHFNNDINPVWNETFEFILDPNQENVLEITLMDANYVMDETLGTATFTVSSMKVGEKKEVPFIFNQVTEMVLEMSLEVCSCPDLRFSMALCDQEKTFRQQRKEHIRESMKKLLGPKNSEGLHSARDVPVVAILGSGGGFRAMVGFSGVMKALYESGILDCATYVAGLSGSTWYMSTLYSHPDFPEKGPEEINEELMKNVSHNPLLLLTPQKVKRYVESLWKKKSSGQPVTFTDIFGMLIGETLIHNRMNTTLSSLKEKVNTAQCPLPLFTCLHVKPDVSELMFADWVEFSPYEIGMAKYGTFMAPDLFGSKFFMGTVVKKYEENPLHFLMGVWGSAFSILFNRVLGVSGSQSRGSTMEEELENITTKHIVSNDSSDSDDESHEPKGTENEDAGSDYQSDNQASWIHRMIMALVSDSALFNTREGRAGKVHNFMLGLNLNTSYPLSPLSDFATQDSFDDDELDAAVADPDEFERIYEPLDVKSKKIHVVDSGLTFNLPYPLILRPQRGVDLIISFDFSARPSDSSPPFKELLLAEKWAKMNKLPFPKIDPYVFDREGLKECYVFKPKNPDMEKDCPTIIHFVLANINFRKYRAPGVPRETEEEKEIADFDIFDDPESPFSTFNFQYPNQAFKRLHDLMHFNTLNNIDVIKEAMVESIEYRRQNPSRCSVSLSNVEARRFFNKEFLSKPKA

Homo sapiens [2] = species: Homo sapiens; assay: Compound was measured for the inhibitory activity against LTC4 formation in human monocyte at 30 uM concentration; type: functional; set-up: scale not given: the % may be the effect or the level left
[3] = pH dependence of compound; weak; type: ADME
Homo sapiens [4] = species: Homo sapiens; assay: Compound was measured for the inhibitory activity against LTC4 formation in human monocyte; not determined; not cell permeable; type: functional
[5] = Dissociation constant of compound.; type: physicochemical
Homo sapiens [6] = species: Homo sapiens; assay: Compound was measured for the inhibitory activity against LTB4 formation in human whole blood at 30 uM concentration; type: functional; set-up: scale not given: the % may be the effect or the level left
[7] = molecular target: T1, Cytosolic phospholipase A2 (Homo sapiens); assay: Compound was measured for the inhibitory activity against Cytosolic phospholipase A 2 (c-PLA2) at 30 uM concentration; set-up: scale not given: the % may be the effect or the level left
Homo sapiens [8] = species: Homo sapiens; assay: Compound was measured for the inhibitory activity against LTC4 formation in human monocyte; not cell permeable; type: functional

Compound `O=C(O)c1ccc2cccc(C(=O)C(F)(F)F)c2c1` has an Activity [1] of -36% and an Activity (Homo sapiens [2]) of -76%.
In the case of `CCCCCCCCCCCCCCCCCCOP(=O)(O)c1cccc2ccc(C(=O)O)cc12`, the pH dependence [3] is reported as “weak” and the Activity (Homo sapiens [4]) is reported as “not cell permeable”.
For `CCCCCCCCCCOP(=O)(O)c1cc(OCc2ccccc2)ccc1/C=C/C(=O)O`, the pKa [5] was 7.1, the Activity (Homo sapiens [2]) was -44% and the Activity (Homo sapiens [6]) was -90%.
For `CCCCCCCOc1ccc(C(=O)O)cc1CC(=O)C(F)(F)F`, the pKa [5] was 7.1, the Activity [7] was -40% and the Activity (Homo sapiens [8]) was “not cell permeable”.
